Data from patent US11241440B2, “Dihydrooxadiazine compounds for treating infections and cancer” (VALORALIA I MÁS D, SL, priority 2016, dated 2022).

Assays:
[1] = system: Aspergillus flavus; assay: EUCAST broth dilution antifungal susceptibility test (MIC); assay type: cell-based; settings: 100% inhibition, 24 hours at 35° C., dilution range 64 to 0.12 mg/l
Method: (§1) Filamentous fungi and yeasts strains, from clinical origin, were supplied by Microbiology Service from The Princess Hospital, Madrid. They are detailed in Table III. Filamentous fungi and yeast cells suspensions in distilled water was prepared from a culture of 24-48 h, depending on species, in Sabouraud agar. Each suspension was adjusted to a fixed size inoculum of 1-5×10^8 CFU/ml with a spectrophotometer (Ferraro, M J National Committee for Clinical Laboratory Standards. 2000). Antifungal susceptibility tests were developed following the standardized methodology detailed by the European Committee on Antimicrobial Susceptibility Testing (EUCAST) documents 7.2 (method for the determination of broth dilution minimum inhibitory concentrations of antifungal agents for yeasts EDef 7.2) and 9.2 (Method for the determination of broth dilution minimum inhibitory concentrations of antifungal agents for conidia forming foulds). The compound was dissolved in DMSO and diluted with RPMI plates with 2% glucose to pH 7 with MOPS buffer. […] Plates were inoculated with a yeast suspension or filamentous fungal spores (1-5×10^5 cls/ml). The results were evaluated after 24 hours incubation at 35° C. and absorbance reading at 530 nm.

[2] = system: Aspergillus fumigatus; assay: as above; assay type: cell-based; settings: 100% inhibition, 24 hours at 35° C., dilution range 64 to 0.12 mg/l
Method: as §1

[3] = system: Aspergillus terreus; assay: as above; assay type: cell-based; settings: 100% inhibition, 24 hours at 35° C., dilution range 64 to 0.12 mg/l
Method: as §1

[4] = system: Scedosporium prolificans; assay: as above; assay type: cell-based; settings: 100% inhibition, 24 hours at 35° C., dilution range 64 to 0.12 mg/l
Method: as §1

[5] = system: C. parapsilosis; settings: C. parapsilosis CP-007; cited from earlier work; further: key: I = intermediate activity; S = susceptibility; R = Resistance
[6] = system: S. prolificans; settings: S. prolificans SP-003; cited from earlier work; further: key: I = intermediate activity; S = susceptibility; R = Resistance
[7] = system: A. fumigatus; settings: A. fumigatus AFu-001; cited from earlier work; further: key: I = intermediate activity; S = susceptibility; R = Resistance
[8] = system: A. flavus; settings: A. flavus AF-001; cited from earlier work; further: key: I = intermediate activity; S = susceptibility; R = Resistance
[9] = system: A. terreus; settings: A. terreus ATe-001; cited from earlier work; further: key: I = intermediate activity; S = susceptibility; R = Resistance

Row | MIC (minimum inhibitory concentration) [1] | MIC (minimum inhibitory concentration) [2] | MIC (minimum inhibitory concentration) [3] | MIC (minimum inhibitory concentration) [4] | SMILES | Characteristics of the strains: susceptibility class [5] | Characteristics of the strains: susceptibility class [6] | Characteristics of the strains: susceptibility class [7] | Characteristics of the strains: susceptibility class [8] | Characteristics of the strains: susceptibility class [9]
1 | 1 | 0.5 | 2 | >16 | C[C@@H]1[C@H](O)[C@@H](C)/C=C/C=C/C=C/C=C/C=C/C=C/C=C/[C@H](O[C@@H]2O[C@H](C)[C@@H](O)[C@H](N)[C@@H]2O)C[C@@H]2O[C@](O)(C[C@@H](O)C[C@@H](O)[C@H](O)CC[C@@H](O)C[C@@H](O)CC(=O)O[C@H]1C)C[C@H](O)[C@H]2C(=O)O [Amphotericin B] | I | R | S | I | I
2 | 1 | 0.5 | 0.5 | >8 | C[C@@H](c1ncncc1F)[C@](O)(Cn1cncn1)c1ccc(F)cc1F [Voriconazole] | – | R | – | – | –
